Where “and” joins values, the source holds several entries; their conditions need not be identical. Identical values can stand only once.

The test has as its system 323965-272-R-J2-PDC complex spheroid viability. The test can be described thus: Anticancer human tumor 323965-272-R-J2-PDC patient-derived pancreatic carcinoma cell line growth inhibition [CLK]. As to conditions: for viability, T/C: stronger effect = lower value. Summed up: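 Patient-derived tumor cells grown as complex spheroids with HUVEC endothelial cells and mesenchymal stem cells, treated with drug combinations. Concentrations descend in half-log steps from near clinical Cmax, or from 10 microM if Cmax unknown.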

Setting [1] is: curve of first compound, second compound 0.0316 µM.
Where [2] appears, read: curve of first compound, second compound 0.1 µM.
Where [3] appears, read: curve of first compound, second compound 0.316 µM.
The mark [4] stands for this setting: curve of first compound, second compound 1 µM.
Setting [5] is: curve of first compound, second compound 3.16 µM.
Where [6] appears, read: curve of first compound, second compound 10 µM.
[7] abbreviates: second compound 0.0316 µM, first compound 0.00316 µM.
[8] abbreviates: second compound 0.0316 µM, first compound 0.01 µM.
The mark [9] stands for this setting: second compound 0.0316 µM, first compound 0.0316 µM.
Where [10] appears, read: second compound 0.0316 µM, first compound 0.1 µM.
Setting [11] is: second compound 0.1 µM, first compound 0.00316 µM.
Where [12] appears, read: second compound 0.1 µM, first compound 0.01 µM.
Where [13] appears, read: second compound 0.1 µM, first compound 0.0316 µM.
Setting [14] is: second compound 0.1 µM, first compound 0.1 µM.
The mark [15] stands for this setting: second compound 0.316 µM, first compound 0.00316 µM.
Where [16] appears, read: second compound 0.316 µM, first compound 0.01 µM.
Setting [17] is: second compound 0.316 µM, first compound 0.0316 µM.
Where [18] appears, read: second compound 0.316 µM, first compound 0.1 µM.
Where [19] appears, read: second compound 1 µM, first compound 0.00316 µM.
The mark [20] stands for this setting: second compound 1 µM, first compound 0.01 µM.
Setting [21] is: second compound 1 µM, first compound 0.0316 µM.
Setting [22] is: second compound 1 µM, first compound 0.1 µM.
The mark [23] stands for this setting: second compound 3.16 µM, first compound 0.00316 µM.
Where [24] appears, read: second compound 3.16 µM, first compound 0.01 µM.
Where [25] appears, read: second compound 3.16 µM, first compound 0.0316 µM.
Setting [26] is: second compound 3.16 µM, first compound 0.1 µM.
[27] abbreviates: second compound 10 µM, first compound 0.00316 µM.
Setting [28] is: second compound 10 µM, first compound 0.01 µM.
Setting [29] is: second compound 10 µM, first compound 0.0316 µM.
Where [30] appears, read: second compound 10 µM, first compound 0.1 µM.
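Note: spheroids exposed to agents for seven days before readout.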
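Throughout, for viability, T/C: percent of DMSO vehicle control wells so 100% = untreated growth.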

In the case of `Cn1ncnc1[C@H]1c2n[nH]c(=O)c3cc(F)cc(c23)N[C@@H]1c1ccc(F)cc1` + CN1CCN(c2cc(C(=O)Nc3cc4cc(-c5cnn(C)c5)ccc4cn3)ccn2)CC1, the IC50 (in general, the concentration that inhibits the measured activity by half) under setting [1] is greater than 100 nM; the IC50 under setting [2] is greater than 100 nM; the IC50 under setting [3] was less than 0.316 nM; the IC50 under setting [4] is less than 0.316 nM; the IC50 under setting [5] is less than 0.316 nM; the IC50 under setting [6] is less than 0.316 nM. The viability, T/C – broadly, the ratio of treated to control – is, setting by setting: (second compound 0.0316 µM, first compound 0.000316 µM) 96.1%; (second compound 0.0316 µM, first compound 0.001 µM) 96%; under setting [7], 90%; under setting [8], 93.3%; under setting [9], 97%; under setting [10], 68.3%. The viability, T/C is 67.6% (second compound 0.1 µM, first compound 0.000316 µM); 65.7% (second compound 0.1 µM, first compound 0.001 µM); 61.6% under setting [11]; 74% under setting [12]; 61.1% under setting [13]; 46.1% under setting [14]. Further, the viability, T/C runs as follows: (second compound 0.316 µM, first compound 0.000316 µM) 23.8%; (second compound 0.316 µM, first compound 0.001 µM) 26.9%; under setting [15], 23%; under setting [16], 27.9%; under setting [17], 24.6%; under setting [18], 21.8%. In addition, the viability, T/C was 2.64% (second compound 1 µM, first compound 0.000316 µM); 3.21% (second compound 1 µM, first compound 0.001 µM); 3.5% under setting [19]; 2.88% under setting [20]; 5.47% under setting [21]; 3.21% under setting [22]. Moreover, the viability, T/C is 4.62% (second compound 3.16 µM, first compound 0.000316 µM); 3.78% (second compound 3.16 µM, first compound 0.001 µM); 5.87% under setting [23]; 3.77% under setting [24]; 4.01% under setting [25]; 4.38% under setting [26]. The viability, T/C by setting is: (second compound 10 µM, first compound 0.000316 µM) 4.34%; (second compound 10 µM, first compound 0.001 µM) 4.75%; under setting [27], 6.41%; under setting [28], 4.13%; under setting [29], 4.28%; under setting [30], 4.85%.
Take `CCCS(=O)(=O)Nc1ccc(F)c(C(=O)c2c[nH]c3ncc(-c4ccc(Cl)cc4)cc23)c1F`: the viability, T/C was 105% and 112% (compound 0.0316 µM); 105% and 113% (compound 0.1 µM); 112% and 123% (compound 0.316 µM); 110% and 105% (compound 1 µM); 116% and 99% (compound 3.16 µM); 84.8% and 79.7% (compound 10 µM). For the same compound, the IC50 (curve of compound) is greater than 10000 nM.
Turning to `CC(Nc1ccc2c(c1)OCCn1cc(N3C(=O)OCC3C(F)F)nc1-2)C(N)=O` (stereo not drawn), the viability, T/C is 94.2% and 96.6% (compound 0.0316 µM); 89.2% and 83.2% (compound 0.1 µM); 76.2% and 66.7% (compound 0.316 µM); 67.8% and 65.5% (compound 1 µM); 63.1% and 68.3% (compound 3.16 µM); 50.9% and 47.6% (compound 10 µM). Besides, the IC50 (curve of compound) is greater than 10000 nM.
For `O=c1[nH]cc(F)c(=O)[nH]1`, the viability, T/C is 116% and 95.3% (compound 0.0316 µM); 105% and 91.3% (compound 0.1 µM); 111% and 103% (compound 0.316 µM); 96.9% and 96.8% (compound 1 µM); 67.9% and 76.6% (compound 3.16 µM); 51.1% and 52.5% (compound 10 µM). Also, the IC50 (curve of compound) was greater than 10000 nM.
As for `C#Cc1c(F)ccc2cc(O)cc(-c3ncc4c(N5CC6CCC(C5)N6)nc(OCC56CCCN5CC(F)C6)nc4c3F)c12` (stereo not drawn), the viability, T/C (compound 0.0316 µM) was 101% and 111%; the viability, T/C (compound 0.1 µM) is 91.2% and 95.5%; the viability, T/C (compound 0.316 µM) is 106% and 98.5%; the viability, T/C (compound 1 µM) was 81.5% and 86.9%; the viability, T/C (compound 3.16 µM) is 63.2% and 75.6%; the viability, T/C (compound 10 µM) was 48.4% and 55.3%. For the same compound, under “curve of compound”, the IC50 was 9340 nM and > 10000 nM.
Turning to `NC(=O)C(=Cn1cnc(-c2cc(C(F)(F)F)cc(C(F)(F)F)c2)n1)c1cncnc1`, the viability, T/C by setting is: (compound 0.00949 µM) 97.4% and 105%; (compound 0.03 µM) 109% and 91.9%; (compound 0.0949 µM) 74.2% and 75.9%; (compound 0.3 µM) 64.3% and 66.8%; (compound 0.949 µM) 69.2% and 61.7%; (compound 3 µM) 38.3% and 28.5%. Moreover, the IC50 (curve of compound) was 1690 nM and 1060 nM.
As for `CC(C)CC(NC(=O)C(Cc1ccccc1)NC(=O)c1cnccn1)B(O)O` (stereo not drawn), the viability, T/C runs as follows: (compound 0.000949 µM) 107% and 115%; (compound 0.003 µM) 75.1% and 49.5%; (compound 0.00949 µM) 5.4% and 2.55%; (compound 0.03 µM) 0.66% and 1.05%; (compound 0.0949 µM) 0.26% and 0.62%; (compound 0.3 µM) 2% and 3.78%. The IC50 (curve of compound) is 4.54 nM and 2.98 nM.
As for `Nc1ccn(C2OC(CO)C(O)C2(F)F)c(=O)n1` (stereo not drawn), the viability, T/C (compound 0.0316 µM) was 30.7% and 33.9%; the viability, T/C (compound 0.1 µM) was 35.3% and 38.5%; the viability, T/C (compound 0.316 µM) was 30% and 29.5%; the viability, T/C (compound 1 µM) was 37.3% and 32.3%; the viability, T/C (compound 3.16 µM) was 32.7% and 31.5%; the viability, T/C (compound 10 µM) was 28.6% and 33.3%. For the setting “curve of compound”, the IC50 is less than 31.6 nM.
With `CCc1c2c(nc3ccc(O)cc13)-c1cc3c(c(=O)n1C2)COC(=O)[C@]3(O)CC` + CNC(=O)c1ccc(Nc2nc(OC3CCCC3)c3c(-c4ccc5nc(C)oc5c4)c[nH]c3n2)c(OC)c1, the IC50 under setting [1] was 7.88 nM; the IC50 under setting [2] was determined as 8.14 nM; the IC50 under setting [3] worked out at 4.18 nM; the IC50 under setting [4] is less than 3.16 nM; the half-inhibitory concentration (IC50) under setting [5] was less than 3.16 nM; the IC50 under setting [6] was less than 3.16 nM. Moreover, the viability, T/C by setting is: under setting [7], 73.5%; under setting [8], 42.4%; under setting [9], 33%; under setting [10], 30.2%; (second compound 0.0316 µM, first compound 0.316 µM) 24.4%; (second compound 0.0316 µM, first compound 1 µM) 23.4%. Besides, the viability, T/C under setting [11] was 61%; the viability, T/C under setting [12] was 47.1%; the viability, T/C under setting [13] is 39%; the viability, T/C under setting [14] was 29.9%; the viability, T/C (second compound 0.1 µM, first compound 0.316 µM) was 25%; the viability, T/C (second compound 0.1 µM, first compound 1 µM) is 24%. Also, the viability, T/C by setting is: under setting [15], 54.1%; under setting [16], 38.7%; under setting [17], 30%; under setting [18], 27.9%; (second compound 0.316 µM, first compound 0.316 µM) 18.4%; (second compound 0.316 µM, first compound 1 µM) 16.8%. Also, the viability, T/C was 34.8% under setting [19]; 25.8% under setting [20]; 21.9% under setting [21]; 16.6% under setting [22]; 15.2% (second compound 1 µM, first compound 0.316 µM); 10.9% (second compound 1 µM, first compound 1 µM). For the same compound, the viability, T/C runs as follows: under setting [23], 30.9%; under setting [24], 30.1%; under setting [25], 25.3%; under setting [26], 14.3%; (second compound 3.16 µM, first compound 0.316 µM) 17%; (second compound 3.16 µM, first compound 1 µM) 11.9%. For the same compound, the viability, T/C is, setting by setting: under setting [27], 30.5%; under setting [28], 23.6%; under setting [29], 20.9%; under setting [30], 16%; (second compound 10 µM, first compound 0.316 µM) 14.2%; (second compound 10 µM, first compound 1 µM) 8.54%.

For the origin of these results see PubChem BioAssay AID2060619 (Molecular Pharmacology Branch, DTP, NCI, 2025).
